Reference: patent US7157430B2, “(Substituted)acyl dipeptidyl inhibitors of the ICE/CED-3 family of cysteine proteases” (Idun Pharmaceuticals, Inc., priority 1998, dated 2007)
Read-outs that look alike come from different tables or passages of the source. Where a SMILES comes first, the peptide text is derived from it. The star is where a group is joined. Cbz = O=C(OCc1ccccc1)*

Tests used:
Format in all cases: biochemical
[1] = biological target: T1, mICE (Mus musculus, UniProt P29452); assay: Fluorescence enzyme assay, IC50 determination, ICE
T1 sequence (P29452 123-296 limits assumed): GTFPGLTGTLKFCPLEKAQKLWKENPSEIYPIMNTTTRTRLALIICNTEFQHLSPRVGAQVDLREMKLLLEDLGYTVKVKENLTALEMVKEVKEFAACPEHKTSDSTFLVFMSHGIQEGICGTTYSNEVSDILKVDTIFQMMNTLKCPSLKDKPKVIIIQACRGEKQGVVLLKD
T1 sequence (P29452 315-402 limits assumed): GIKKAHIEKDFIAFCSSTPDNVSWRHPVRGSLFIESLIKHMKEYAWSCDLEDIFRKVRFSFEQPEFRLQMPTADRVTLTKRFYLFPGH
Protocol: (§1) Fluorescence enzyme assays detecting the activity of the compounds of Formula 1 utilizing the recombinant ICE and CPP32 enzymes are performed essentially according to Thornberry et al. (Nature, 356:768:774 (1992)) and Nicholson et al. (Nature, 376:37–43 (1995)) respectively, (herein incorporated by reference) in 96 well microtiter plates. The substrate is Acetyl-Tyr-Val-Ala-Asp-amino-4-methylcoumarin (AMC) for the ICE assay and Acetyl-Asp-Glu-Val-Asp-amino-4-methylcoumarin for the CPP32, Mch2, Mch3 and Mch5 assays. Enzyme reactions are run in ICE buffer (25 mM HEPES, 1 mM EDTA, 0.1% CHAPS, 10% sucrose, pH 7.5) containing 2 mM DTT at room temperature in duplicate.
(§2) The enzyme and the compound of Formula I to be assayed are allowed to preincubate in the microtitre plate wells for 30 minutes at room temperature prior to the addition of substrate to initiate the reaction. Fluorescent AMC product formation is monitored for one hour at room temperature by measuring the fluorescence emission at 460 nm using an excitation wavelength of 360 nm. The fluorescence change in duplicate (control) wells are averaged and the mean values are plotted as a function of inhibitor concentration to determine the inhibitor concentration producing 50% inhibition (IC50). The results of this assay are set forth below in Table 1 and in Table 3 (for Table 3, see Examples 11 through 52).
(§3) The reference compound for this assay was Cbz-ValAlaAsp-H and the values are denoted in Table 1 as “Reference”.

[2] = biological target: T2, CPP32 (Homo sapiens, UniProt P42574); assay: Fluorescence enzyme assay, IC50 determination, CPP32
T2 sequence (P42574 29-175 limits assumed): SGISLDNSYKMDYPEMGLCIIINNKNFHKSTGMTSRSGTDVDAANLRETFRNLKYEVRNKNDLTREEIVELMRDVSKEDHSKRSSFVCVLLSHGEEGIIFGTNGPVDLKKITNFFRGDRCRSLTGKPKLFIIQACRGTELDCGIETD
T2 sequence (P42574 176-277 limits assumed): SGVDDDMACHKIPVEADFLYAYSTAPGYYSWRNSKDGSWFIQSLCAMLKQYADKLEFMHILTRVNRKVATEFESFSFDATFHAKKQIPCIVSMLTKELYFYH
Protocol: as §1, §2, §3

[3] = biological target: T3, MCH-2 (Homo sapiens, UniProt P55212); assay: Fluorescence enzyme assay, IC50 determination, Mch2
T3 sequence (P55212 24-179 limits assumed): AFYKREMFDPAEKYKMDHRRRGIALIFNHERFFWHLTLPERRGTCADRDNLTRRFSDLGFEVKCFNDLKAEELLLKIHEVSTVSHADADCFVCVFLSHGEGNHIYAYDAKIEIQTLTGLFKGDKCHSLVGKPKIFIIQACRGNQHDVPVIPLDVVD
T3 sequence (P55212 194-293 limits assumed): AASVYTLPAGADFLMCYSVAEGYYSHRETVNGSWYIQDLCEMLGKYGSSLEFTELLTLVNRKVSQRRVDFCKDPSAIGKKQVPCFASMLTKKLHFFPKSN
Protocol: as §1, §2, §3

[4] = biological target: T4, MCH-3 (Homo sapiens, UniProt P55210); assay: Fluorescence enzyme assay, IC50 determination, Mch3
T4 sequence (P55210 24-198 limits assumed): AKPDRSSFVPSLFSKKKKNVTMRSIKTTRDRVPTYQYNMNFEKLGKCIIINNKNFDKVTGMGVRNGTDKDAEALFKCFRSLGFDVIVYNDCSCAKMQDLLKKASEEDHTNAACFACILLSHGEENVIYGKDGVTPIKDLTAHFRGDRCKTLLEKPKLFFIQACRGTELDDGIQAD
T4 sequence (P55210 207-303 limits assumed): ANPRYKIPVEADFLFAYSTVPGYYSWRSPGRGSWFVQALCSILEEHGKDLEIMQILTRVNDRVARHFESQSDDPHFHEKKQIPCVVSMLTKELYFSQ
Protocol: as §1, §2, §3

[5] = biological target: MCH-5 (Homo sapiens, UniProt Q14790); assay: Fluorescence enzyme assay, IC50 determination, Mch5
Chain of MCH-5 (Q14790 217-374 limits assumed, species assumed): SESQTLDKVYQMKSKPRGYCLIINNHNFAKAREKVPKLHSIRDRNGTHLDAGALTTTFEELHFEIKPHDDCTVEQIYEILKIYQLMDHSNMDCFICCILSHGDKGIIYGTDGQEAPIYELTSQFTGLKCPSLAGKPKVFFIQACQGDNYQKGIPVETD
Chain of MCH-5 (Q14790 385-479 limits assumed, species assumed): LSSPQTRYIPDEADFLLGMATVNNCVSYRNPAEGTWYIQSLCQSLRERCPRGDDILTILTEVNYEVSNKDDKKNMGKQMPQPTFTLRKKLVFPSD
Protocol: as §1, §2, §3

[6] = recombinant enzyme, Ac-YVAD-AMC substrate, 30 min preincubation, room temperature, read-out: mICE IC50
[7] = recombinant enzyme, Ac-DEVD-AMC substrate, 30 min preincubation, room temperature, read-out: CPP32 IC50
[8] = Ac-DEVD-AMC substrate, 30 min preincubation, room temperature, read-out: MCH-2 IC50
[9] = Ac-DEVD-AMC substrate, 30 min preincubation, room temperature, read-out: MCH-3 IC50
[10] = Ac-DEVD-AMC substrate, 30 min preincubation, room temperature, read-out: MCH-5 IC50
[11] = Table 3, method of Preparation 3A, read-out: mICE I50
[12] = Table 3, method of Preparation 3A, read-out: CPP32 I50
[13] = Table 3, method of Preparation 3A, read-out: MCH2 I50
[14] = Table 3, method of Preparation 3A, read-out: MCH3 I50
[15] = Table 3, method of Preparation 3A, read-out: MCH5 I50

Compound | IC50 [1, 6] [µM] | IC50 [2, 7] [µM] | IC50 [3, 8] [µM] | IC50 [4, 9] [µM] | IC50 [5, 10] [µM] | IC50 [1, 11] [µM] | IC50 [2, 12] [µM] | IC50 [3, 13] [µM] | IC50 [4, 14] [µM] | IC50 [5, 15] [µM]
CC(C)[C@H](NC(=O)OCc1ccccc1)C(=O)N[C@@H](C)C(=O)N[C@H](C=O)CC(=O)O [reference, Cbz-ValAlaAsp-H, reference compound] (Cbz-Val-Ala-Asp-aldehyde) | 0.064 | 47 | > 10 | > 10 | 2.96 | – | – | – | – | –
CC(C)C[C@H](NC(=O)COc1c(Cl)cc(Cl)c2ccccc12)C(=O)N[C@H](C=O)CC(=O)O [Example 29] | – | – | – | – | – | 0.141 | 0.357 | 21.4 | 3.61 | 3.04
O=C[C@H](CC(=O)O)NC(=O)[C@@H]1Cc2ccccc2N1C(=O)COc1cccc2ccccc12 [Example 186, (2′S,3S)-3-[N-((1-Naphthyloxy)Acetyl)Indoline-2′-Carbonyl]Amino-4-Oxobutanoic Acid] | 0.298 | 25.3 | > 50 | > 50 | 39.8 | – | – | – | – | –
CC(C)C[C@H](NC(=O)C(C)Oc1ccccc1)C(=O)N[C@H](C=O)CC(=O)O (stereo partly drawn) [Example 36] | – | – | – | – | – | 20.4 | 1.77 | > 10 | 8.27 | > 10
O=C[C@H](CC(=O)O)NC(=O)[C@@H]1CSC(c2ccccc2)N1C(=O)COc1cccc2ccccc12 (stereo partly drawn) [Example 179, (3S,2′RS,4′R)-3-[3′-((1-Naphthyloxy)Acetyl)-2′-Phenylthiazolidine-4′-Carbonyl]Amino-4-Oxobutanoic Acid] | 0.204 | 14 | 3.53 | > 50 | 1.55 | – | – | – | – | –

Results, then the compound that gave them:

IC50 [1, 6] [µM] | IC50 [2, 7] [µM] | IC50 [3, 8] [µM] | IC50 [4, 9] [µM] | IC50 [5, 10] [µM] | IC50 [1, 11] [µM] | IC50 [2, 12] [µM] | IC50 [3, 13] [µM] | IC50 [4, 14] [µM] | IC50 [5, 15] [µM] | Compound
0.127 | 0.207 | 1.01 | 11 | 0.615 | – | – | – | – | – | CC(C)[C@H](NC(=O)COc1cccc2c(NS(=O)(=O)C(F)(F)F)cccc12)C(=O)N[C@H](C=O)CC(=O)O [Example 188, (3S)-3-[N-((5′-Trifluoromethylsulfonylamino-1′-Naphthyloxy)Acetyl)Valinyl]Amino-4-Oxobutanoic Acid]
1.89 | 0.731 | 1.9 | 17 | 0.2 | – | – | – | – | – | CC(C)[C@H](NC(=O)COc1cc2ccccc2cc1C(=O)O)C(=O)N[C@H](C=O)CC(=O)O [Example 7, (3S)-3-[N-((3′-Carboxy-2′-Naphthyloxy)Acetyl)Valinyl]Amino-4-Oxobutanoic Acid]
– | – | – | – | – | 0.843 | 0.375 | 32.4 | 4.16 | 4.14 | Cc1ccc2ccccc2c1OCC(=O)N[C@@H](CC(C)C)C(=O)N[C@H](C=O)CC(=O)O [Example 26]
– | – | – | – | – | 1.1 | 0.311 | 14.5 | 3.75 | 3.86 | CC(C)C[C@H](NC(=O)COc1cccc(-c2ccccc2)c1)C(=O)N[C@H](C=O)CC(=O)O [Example 40]
